Experimental data taken from PubChem BioAssay (NCI).
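Protocol summary: plate cells (96-well), add compound at 5 concentrations, incubate 48 h, interpolate endpoints linearly. The concentration for 50% growth inhibition is given as GI50. TGI is the concentration that stops growth completely.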

Assays:
Assay in all cases: inhibition of tumour cell growth, NCI panel, 48 h
KM12 colon = test system: KM12 colon
SN12C renal = test system: SN12C renal
OVCAR-5 ovarian = test system: OVCAR-5 ovarian
NCI-H226 lung = test system: NCI-H226 lung
CAKI-1 renal = test system: CAKI-1 renal
HOP-62 NSCLC = test system: HOP-62 NSCLC
SF-539 CNS = test system: SF-539 CNS
OVCAR-4 ovarian = test system: OVCAR-4 ovarian
HCT-116 colon = test system: HCT-116 colon
BT-549 breast = test system: BT-549 breast

| Compound | TGI (KM12 colon) [µM] | TGI (SN12C renal) [µM] | TGI (OVCAR-5 ovarian) [µM] | TGI (NCI-H226 lung) [µM] | TGI (CAKI-1 renal) [µM] | TGI (HOP-62 NSCLC) [µM] | TGI (SF-539 CNS) [µM] | TGI (OVCAR-4 ovarian) [µM] | TGI (HCT-116 colon) [µM] | GI50 (KM12 colon) [µM] | GI50 (SN12C renal) [µM] | GI50 (OVCAR-5 ovarian) [µM] | GI50 (NCI-H226 lung) [µM] | GI50 (CAKI-1 renal) [µM] | GI50 (HOP-62 NSCLC) [µM] | GI50 (HCT-116 colon) [µM] | GI50 (OVCAR-4 ovarian) [µM] | GI50 (BT-549 breast) [µM] | TGI (BT-549 breast) [µM] | GI50 (SF-539 CNS) [µM] |
| --- | --- | --- | --- | --- | --- | --- | --- | --- | --- | --- | --- | --- | --- | --- | --- | --- | --- | --- | --- | --- |
| CC(C)(C)C(=O)ON1N=NC2C3CC(OCc4ccccc4)(OCc4ccccc4)C(O3)C21 (centres undefined) | 55.4 | 39.3 | > 100 | 40 | > 100 | > 100 | 31 | 82.4 |  |  |  |  |  |  |  |  |  |  |  |  |
| C1OC1CO[C@@H]1CO[C@H]2[C@@H]1OC[C@H]2OCC1CO1 (some centres undefined) | > 100 | > 100 | > 100 | > 100 | > 100 | > 100 | > 100 | > 100 | > 100 |  |  |  |  |  |  |  |  |  |  |  |
| NC(=O)C(c1ccccc1)N1CCOCC1 (centres undefined) | > 100 | > 100 | > 100 | > 100 | > 100 | > 100 | > 100 | > 100 | > 100 |  |  |  |  |  |  |  |  |  |  |  |
| O=C1CN(C(=O)c2ccccc2)Cc2[nH]c3ccccc3c21 | > 100 | > 100 | > 100 | > 100 |  | > 100 | > 100 | > 100 | > 100 |  |  |  |  |  |  |  |  |  |  |  |
| CCOC(=O)/C=C/C(C(=O)/C=C/c1ccc(O)c(OC)c1)=C(O)\C=C\c1ccc(O)c(OC)c1 | > 100 | 8.16 | 7.56 | 5.1 | 17.5 | 16.1 |  | 25.7 | 3.24 | 3.96 | 1.88 | 3.17 | 1.67 | 4.5 | 3.19 | 1.31 | 7.36 |  |  |  |
| CCSC1=C(C)N(C=NC(C)(C)C)CC1 | > 100 | > 100 | > 100 | > 100 | > 100 | > 100 | > 100 | > 100 | > 100 |  |  |  |  |  |  |  |  |  |  |  |
| O=C1C(=O)N(c2ccc(Cl)cc2Cl)C(=O)C(=O)C1c1nc2ccccc2o1 | > 100 | > 100 | > 100 | > 100 | > 100 | > 100 | > 100 | > 100 | > 100 |  |  |  |  |  |  |  |  |  |  |  |
| CN(C)C(=O)c1cc2cnc(Nc3ccc(-c4csc5c(=O)cc(N6CCOCC6)oc45)cc3)nc2n1C1CCCC1 | 0.682 | 14.6 |  | 2.04 | 1.15 | 1.67 | 0.417 | > 53.7 | 0.815 | 0.0414 | 0.21 |  | 0.229 | 0.152 | 0.269 | 0.169 | 0.293 | 0.166 | 0.686 | 0.154 |
| COc1cc(-c2nc3sc4c(c3c(=O)[nH]2)CCCCCC4)cc(OC)c1OC | > 33.2 | > 33.2 | > 33.2 | > 33.2 | > 33.2 | > 33.2 | 2.08 |  | 5.72 | 1.21 | 2.14 | 2.23 | 3.6 | 1.23 | 1.36 | 1.21 |  | 1.26 | 19 | 0.673 |
